Test results reported in US8569264B2, “Antibacterial 4,5-substituted aminoglycoside analogs having multiple substituents” (ISIS Pharmaceuticals, Inc., priority 2005, dated 2013).
Like-named read-outs stand apart in the source and are kept apart here.

How the values were obtained:
K. pneumoniae ATCC 10031 = assay: MIC, K. pneumoniae ATCC 10031; assay type: cell-based
Description: (§1) The MIC assays are carried out in 150 μL volume in duplicate in 96-well clear flat-bottom plates. The bacterial suspension from an overnight culture growth in appropriate medium is added to a solution of test compound in 4% DMSO in water. Final bacterial inoculum is approximately 10^5-10^6 CFU/well. […] Both ampicillin and tetracycline are used as antibiotic-positive controls in each screening assay for S. pyogenes, E. coli imp-, E. coli, S. aureus, E. faecalis, K. pneumoniae and P. vulgaris. Ciprofloxacin is used as an antibiotic positive control in each screening assay for P. aeruginosa.
(§2) The following compounds were prepared using methods illustrated in the previous examples. The compounds were also examined in standard bacterial assays against E. Coli, S. Aureus, P. aurginosa, K. pneumoniae, P. vulgaris, and A. baumannii to determine activities. Each of the bacterial cultures that are available from ATCC (www.atcc.org) is identified by its ATCC number. A. baumannii is gentamicin sensitive Acinetobacter baumannii #2 from Walter Reed.

[1] = test system: gentamicin sensitive Acinetobacter baumannii #2 from Walter Reed; assay: MIC, A. baumannii WReed 2; assay type: cell-based
Description: as §1, §2

[2] = biological target: 18S ribosomal subunit RNA target; assay: Mass spectrometry based binding assay (FTICR), 18S
Summary of the method: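 Ligands at varying concentrations were mixed with 2.5 or 5 μM RNA in 100 mM ammonium acetate with 33% isopropyl alcohol, then analysed by negative-mode ESI-FTICR. Complex/free RNA ion ratios plotted against ligand concentration were fitted to a second- or higher-order binding polynomial to give KD.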

P. aurginosa ATCC 25416 = assay: MIC, P. aurginosa ATCC 25416; assay type: cell-based
Description: as §1, §2

P. vulgaris ATCC 8427 = assay: MIC, P. vulgaris ATCC 8427; assay type: cell-based
Description: as §1, §2

E. Coli = assay: MIC, E. Coli; assay type: cell-based
Summary of the method: (§3)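 Broth microdilution in duplicate, 150 μL: overnight-culture bacteria were added to compound in 4% DMSO in water. Final inoculum was about 10^5–10^6 CFU/well.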

S. aureus ATCC 13709 = assay: MIC, S. aureus ATCC 13709; assay type: cell-based
Description: as §1, §2

[3] = biological target: 16S ribosomal subunit RNA target; assay: Mass spectrometry based binding assay (FTICR), 16S
Summary of the method: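 Binding to the 16S ribosomal subunit RNA target was measured by FTICR mass spectrometry. Ligands or ligand mixtures were prepared at several concentrations in 10 μL of aqueous 100 mM ammonium acetate buffer with 33% isopropyl alcohol. Samples were infused at 1 μL/min into a negative-mode electrospray source, and ions were held 1 sec in an RF-only hexapole. Complex/free RNA ratios versus ligand concentration were fitted to a binding polynomial to obtain KD.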

[4] = test system: Staphylococcus aureus (Smith Strain ATCC 13709); assay: Staphylococcus aureus mouse protection assay; assay type: in vivo, mice; conditions: for # Dead mice/Total mice in group: Staph Conc. 10^6, 10% Mucin
Description: Two of the novel aminoglycoside compounds of the invention were examined for their anitbacterial activity against staphylococcus aureus. Mice were fed with autoclaved commercial food pellets and sterile water ad libitum. Animals were inoculated intraperitoneally with 0.5 mL/mouse of the indicated concentration of S. aureus (ATCC 13709) containing 10% mucin. There were 10 mice in each treatment group and compounds were administered subcutaneously one and 3 hour after infection. Compounds 15a (R4═R5═CH3) and 15j (R4═H, R5═(CH2)2C6H5)) were used at 75 mg/kg, 37.5 mg/kg, 18.8 mg/kg, 9.4 mg/kg, 4.7 mg/kg, 2.3 mg/kg, 1.17 mg/kg and 0.5 mg/kg. Amakacin, paromomycin and neomycin were used as the positive controls at concentrations of 2 mg/kg, 1 mg/kg and 0.5 mg/kg.
Test compound was administered as an aqueous buffer solution (phosphate buffered saline (PBS), pH=7.4).

P. aurginosa ATCC 29248 = assay: MIC, P. aurginosa ATCC 29248; assay type: cell-based
Description: as §1, §2

S. Aureus = assay: MIC, S. Aureus; assay type: cell-based
Summary of the method: as §3

E. coli ATCC 25922 = assay: MIC, E. coli ATCC 25922; assay type: cell-based
Description: as §1, §2

[5] = test system: E. coli S30 bacterial extract (pBestLuc firefly luciferase reporter); assay: Coupled bacterial transcription/translation assay; assay type: biochemical; conditions: read-out: Trans/Trans IC50
Summary of the method: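 Coupled transcription/translation of firefly luciferase from 1 μg pBestLuc (tac promoter) in E. coli S30 extract, with or without test compound. Reaction 35 min at 37° C., then functional luciferase detected by luminescence.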

[6] = Example 110, listed as 9p - sample 1
[7] = Example 110, listed as 9p - sample 2

Structure (SMILES): NCC1OC(OC2C(CO)OC(OC3C(O)C(N)CC(N)C3OC3OC(CO)C(O)C(O)C3N)C2OCCNCCc2ccccc2)C(N)C(O)C1O (stereo not drawn) [Compound 9p]
- MIC K. pneumoniae ATCC 10031 (K. pneumoniae ATCC 10031; [6]): 1.3 to 2.5 µM
- MIC K. pneumoniae ATCC 10031 (K. pneumoniae ATCC 10031; [7]): >40 µM
- MIC K. pneumoniae ATCC 10031 (K. pneumoniae ATCC 10031; Example 111): 2.5-5^ uM
- MIC A. baumannii WReed 2 [1, 6]: 2.5-5^ uM
- MIC A. baumannii WReed 2 [1, 7]: >40 µM
- MIC A. baumannii WReed 2 ([1]; Example 111): >40 µM
- Kd ([2]; FTICR mass spectrometry, Example 105): 1.3 µM
- MIC P. aurginosa ATCC 25416 (P. aurginosa ATCC 25416; Example 110): >40 µM
- MIC P. aurginosa ATCC 25416 (P. aurginosa ATCC 25416; Example 111): >40 µM
- MIC P. vulgaris ATCC 8427 (P. vulgaris ATCC 8427; [6]): 2.5-5^ uM
- MIC P. vulgaris ATCC 8427 (P. vulgaris ATCC 8427; [7]): 20 to 40 µM
- MIC P. vulgaris ATCC 8427 (P. vulgaris ATCC 8427; Example 111): >40 µM
- MIC E. Coli. (E. Coli; Example 105): 3 to 6 µM
- MIC S. aureus ATCC 13709 (S. aureus ATCC 13709; [6]): 10 to 20 µM
- MIC S. aureus ATCC 13709 (S. aureus ATCC 13709; [7]): 1.2 to 2.5 µM
- MIC S. aureus ATCC 13709 (S. aureus ATCC 13709; Example 111): 0.6 to 1.3 µM
- Kd ([3]; FTICR mass spectrometry, run at 100 nM RNA, Example 105): 0.1 µM
- # Dead mice/Total mice in group ([4]; 0.1 mg/kg in PBS pH=7.4, the 14th table): 5/10 (10% Mucin)
- # Dead mice/Total mice in group ([4]; 0.5 mg/kg in PBS pH=7.4, the 14th table): 0/10 (10% Mucin)
- # Dead mice/Total mice in group ([4]; 1 mg/kg in PBS pH=7.4, the 14th table): 0/10 (10% Mucin)
- # Dead mice/Total mice in group ([4]; 2 mg/kg in PBS pH=7.4, the 14th table): 0/10 (10% Mucin)
- # Dead mice/Total mice in group ([4]; 4.5 mg/kg in PBS pH=7.4, the 14th table): 0/10 (10% Mucin)
- # Dead mice/Total mice in group ([4]; 9 mg/kg in PBS pH=7.4, the 14th table): 0/10 (10% Mucin)
- # Dead mice/Total mice in group ([4]; 18 mg/kg in PBS pH=7.4, the 14th table): 0/10 (10% Mucin)
- # Dead mice/Total mice in group ([4]; 37 mg/kg in PBS pH=7.4, the 14th table): 0/10 (10% Mucin)
- # Dead mice/Total mice in group ([4]; 75 mg/kg in PBS pH=7.4, the 14th table): 0/10 (10% Mucin)
- # Dead mice/Total mice in group ([4]; […] in PBS pH=7.4, the 14th table): 1/10 (10% Mucin)
- smallest protective dose ([4]; protective at doses as small as, summary of the 14th table): 0.25 mg/kg
- prevention of lethal bacterial infections in mice ([4]; result in words, summary of the 14th table): effective at preventing lethal bacterial infections in mice
- MIC P. aurginosa ATCC 29248 (P. aurginosa ATCC 29248; Example 110): >40 µM
- MIC P. aurginosa ATCC 29248 (P. aurginosa ATCC 29248; Example 111): >40 µM
- MIC S. Aureus (S. Aureus; Example 105): 0.3 to 0.6 µM
- MIC E. coli ATCC 25922 (E. coli ATCC 25922; [6]): 5 to 10 µM
- MIC E. coli ATCC 25922 (E. coli ATCC 25922; [7]): >40 µM
- MIC E. coli ATCC 25922 (E. coli ATCC 25922; Example 111): 5 to 10 µM
- IC50 ([5]; Example 105): 1.1 µM

Structure (SMILES): NCC1OC(OC2C(CO)OC(OC3C(O)C(N)CC(N)C3OC3OC(CNCCc4ccccc4)C(O)C(O)C3N)C2O)C(N)C(O)C1O (stereo not drawn) [Compound 15j]
- MIC K. pneumoniae ATCC 10031 (K. pneumoniae ATCC 10031; Example 110): <0.6 µM
- MIC K. pneumoniae ATCC 10031 (K. pneumoniae ATCC 10031; Example 111): 0.6 to 1.3 µM
- MIC A. baumannii WReed 2 ([1]; Example 110): 1.3 to 2.5 µM
- MIC A. baumannii WReed 2 ([1]; Example 111): 20 to 40 µM
- Kd ([2]; Example 108): 2.2 µM
- MIC P. aurginosa ATCC 25416 (P. aurginosa ATCC 25416; Example 110): >40 µM
- MIC P. aurginosa ATCC 25416 (P. aurginosa ATCC 25416; Example 111): >40 µM
- MIC P. vulgaris ATCC 8427 (P. vulgaris ATCC 8427; Example 110): 1.3 to 2.5 µM
- MIC P. vulgaris ATCC 8427 (P. vulgaris ATCC 8427; Example 111): >40 µM
- MIC E. Coli. (E. Coli; Example 108): 1.3 to 2.5 µM
- MIC S. aureus ATCC 13709 (S. aureus ATCC 13709; Example 110): 10 to 20 µM
- MIC S. aureus ATCC 13709 (S. aureus ATCC 13709; Example 111): 0.3 to 0.6 µM
- Kd ([3]; Example 108): 0.5 µM
- # Dead mice/Total mice in group ([4]; 0.5 mg/kg subcutaneously, the 13th table): 7/10
- # Dead mice/Total mice in group ([4]; 1 mg/kg subcutaneously, the 13th table): 0/10
- # Dead mice/Total mice in group ([4]; 2 mg/kg subcutaneously, the 13th table): 0/10
- # Dead mice/Total mice in group ([4]; 4.5 mg/kg subcutaneously, the 13th table): 0/10
- # Dead mice/Total mice in group ([4]; 9 mg/kg subcutaneously, the 13th table): 0/10
- # Dead mice/Total mice in group ([4]; 18 mg/kg subcutaneously, the 13th table): 0/10
- # Dead mice/Total mice in group ([4]; 37 mg/kg subcutaneously, the 13th table): 0/10
- # Dead mice/Total mice in group ([4]; 75 mg/kg subcutaneously one and 3 hour after infection, intraperitoneal, the 13th table): 0/10
- MIC P. aurginosa ATCC 29248 (P. aurginosa ATCC 29248; Example 110): >40 µM
- MIC P. aurginosa ATCC 29248 (P. aurginosa ATCC 29248; Example 111): >40 µM
- MIC S. Aureus (S. Aureus; Example 108): 0.3 to 0.6 µM
- MIC E. coli ATCC 25922 (E. coli ATCC 25922; Example 110): 1.3 to 2.5 µM
- MIC E. coli ATCC 25922 (E. coli ATCC 25922; Example 111): 1.3 to 2.5 µM
- IC50 ([5]; Example 108): 0.2 µM
